# In patent US20250144127A1, “LONG-CHAIN COMPOUND AND USE THEREOF” (Burgeon Therapeutics Co., Ltd., priority 2021, published 2025):
# System: primary mouse hepatocytes
# Assay: Inhibition of de novo lipid synthesis in primary hepatocytes, [1,2-14C]-sodium acetate tracer
# Format: cell-based
# Conditions: Hepatocyte, compound 12.5 μM, 4 h, [1,2-14C]-acetate, read-out: Lipid synthesis inhibition (%) (mean ± SD)
# Description: Primary hepatic cell isolation and walling: the mouse liver was lavaged by calcium-free perfusate, then digested using collagenase and mouse primary hepatocytes were obtained by density gradient centrifugation, and were inoculated in 6-well plates at a density of 3×10^5/ml (0.2% gelatin was coated before inoculating). After inoculating, the cells were cultured and adhered for 6 h. The medium was changed to serum-free LG-DMEM (containing 2× double antibody) and starved the cells overnight.
# Isotope tracing: the next day, the medium was switched to serum-free LG-DMEM containing 10 nM insulin and the corresponding concentration of compounds (1950 μL, 4 replicate wells per group); 0.1 μCi of [1,2-^14C]-acetate serum-free medium was added to each well, and the plates were then incubated for 4 h in the incubator.
# Lipid saponification: Add 1.6 mL of ice PBS to each well for washing 3 times, shake the plate to dry and add 600 μL of 0.5 M KOH to each well to lysis for 1 h. Pipette 480 μL into a glass test tube with 400 μL of 20% KOH (methanol was used as solvent), shake and mix well, and then place it in a water bath at 95° C. to saponify for 3 h. The remaining lysate was used for the determination of the concentration of proteins. Add 400 μL of petroleum ether to each tube, pipette 5-6 times and centrifuge at 2500 rpm for 5 min, take 350 μL of the upper layer of the clear solution to the EP tube, and then add 400 μL of petroleum ether to repeat the extraction for 2 times (a total of 3 times). After complete transfer of the supernatant, 200 μL of water and 400 μL of 5N sulfuric acid were added to each tube for acidification, and the mixture was shaken and mixed. Add 400 μL of petroleum ether to each tube, pipette 5-6 times and centrifuge at 2500 rpm for 5 min, take 350 μL of the upper layer of the clear solution to the EP tube, then add 400 μL of petroleum ether and repeat the extraction for 2 times (a total of 3 times). Place in a fume hood and evaporate the petroleum ether overnight.
# Isotope participation quantification: 1700 μL of scintillation solution was added to each tube and read.
# Data processing and analysis: Firstly, the isotopic reference (R control, unit: CCPM/mg protein) of free fatty acids and cholesterol was calculated for the Control group of untreated mouse primary hepatocytes within 4 hours, which represented the basal synthesis. The percent inhibition of lipid synthesis was then calculated for each concentration group of the sample.
smiles,measurement,value
CC(C)(CCCC/C=C/CCCCCC(C)(C)C(=O)O)C(=O)O [Compound A3],inhibition at 12.5 µM,71.2 ± 4.3%
